In patent US10676474B2, “1,6-naphthyridine derivatives as CDK4/6 inhibitor” (CSTONE PHARMACEUTICALS, priority 2016, dated 2020):
≈ marks a conversion by molar mass, not a printed value.

Legend:
NCI-H358 cells = test: Cell viability assay NCI-H358 (CellTiter-Glo); assay type: cell-based; settings: Homo sapiens, 168 h; NCI-H358, incubated for 7 days
Experimental: The NCI-H358 cell line is from the cell bank of the Department of Biology of WuXi Apptec Co. Ltd. Envision Multi-Label Analyzer (PerkinElmer).
1) 100 μL of phosphate buffer solution was added to the peripheral wells of the 384-well plate and 40 μL of NCI-H358 cell suspension was added to the other wells containing 250 NCI-H358 cells. The cell plate was then placed in a carbon dioxide incubator and incubated overnight.
2) A 3-fold gradient dilution was subjected to the tested compounds using Echo. Each compound was diluted by 10 concentration gradients (diluted from 25 μM to 1.27 nM), 100 nL of which was added to the corresponding wells of the cell plate. The cell plate was then placed in a carbon dioxide incubator and incubated for 7 days.
3) 20 μL of Promega CellTiter-Glo reagent was added to each well of the cell plate, and shaken for 10 minutes away from light at room temperature to stabilize the luminescence signal. Readings were performed using a PerkinElmer Envision Multi-label Analyzer.
Table 1 provides the inhibitory activity of the compounds of the present invention against the proliferation of H358 cells.

physchem = settings: pH 7.4, aqueous buffer, kinetic from dmso stock
[1] = Thermodynamic solubility test (shake-flask, HPLC); assay type: physicochemical; settings: phosphate buffer, aqueous buffer, thermodynamic from solid; pH = 7.4, Table 3-2; read-out: Thermodynamic solubility
Experimental: The thermodynamic solubility of the compounds was determined by the shake-flask method and HPLC. The solubility of the compounds is an important property that affects drug screening of compounds and the absorption of compounds in animals and humans. A saturated solution of the compound was first given and quantitatively tested by HPLC to obtain the solubility of the compound.
50 mM phosphate buffer solution, pH 7.4.
Not less than 2 mg of the sample powder was weighed into a vial of Whatman miniuniprep. If test of the thermodynamic solubility of a sample in multiple buffer solutions is required, an individual vial is required for each test.
450 μL of the buffer solution (pH 7.4) was added to each Whatman miniuniprep vial.
After the addition of the buffer solution, the Whatman miniuniprep cap with a filter was mounted and pressed above the liquid level so that the filter could contact with the buffer solution during shaking.
And the observation of the solution was recorded.
It was shaked at 550 RPM for 24 hours at room temperature (about 22 to 25° C.).
The Whatman Miniunipreps filter cap was pressed to the bottom to give the filtrate of the sample solubility solution. All sample vials should be filtered before and after insoluble substances and their leakage.
The buffer was diluted 50 folds to give a sample diluent.
Three UV standards from low to high concentration were injected into HPLC, followed by the injection of the dilutions and supernatants of the tested compounds. The tested sample was injected twice.

[2] = system: LU-01-0393 lung cancer patient-derived tumor tissue xenograft (PDX); test: In vivo pharmacodynamic study (1), LU-01-0393 PDX; set-up: species or system BALB/c nude mice; settings: 120 mg/kg orally daily
Experimental: The in vivo pharmacodynamic experiments were performed on the BALB/c nude mice implanted subcutaneously with the LU-01-0393 lung cancer patient-derived tumor tissue xenograft (PDX).
BALB/c nude mice, female, 6-8 weeks, weighing approximately 17-21 g, were placed in a single ventilated cage (5 mice per cage) under a special pathogen free environment. All of the cages, beddings and water were disinfected before use. All of the animals were permitted free access to a standard certified commercial laboratory diet. A total of 36 mice purchased from Vital River Laboratory Animal Co., LTD, Beijing were used for the study. Each mouse was implanted subcutaneously with a tumor LU-01-0393 FP4 section (20-30 mm^3) in the right back for tumor growth. The dosing initiated when the average tumor volume reached about 150-200 mm^3. The tumor volume was measured twice a week using a two-dimensional caliper, and the volume was measured in mm^3, calculated by the following the formula: V=0.5 a×b^2, wherein, a and b were the long and short diameters of the tumor, respectively. The antitumor efficacy was determined by dividing the average increase in the tumor volume of the animals treated with the compound by the average increase in the tumor volume of the untreated animals.

[3] = Metabolic stability in human liver microsomes; assay type: in vitro ADME; settings: 0.5 mg/mL protein, read-out: Human T1/2
Experimental: (§1) This assay is used to test the metabolic stability of tested substances in rats, mice and human liver microsomes.
(§2) 1) The tested compound with concentration of 1 μM was co-incubated with liver microsomes with a protein concentration of 0.5 mg/mL under a reducing coenzyme II regeneration system in a 37° C. water bath.
(§3) 2) The positive controls include: testosterone (3A4 substrate), propafenene (2D6 substrate) and diclofenac (2C9 substrate). The incubation condition of the positive controls was consistent with that of the compound.
(§4) 3) The reaction time points were: 0, 5, 10, 20, 30 and 60 minutes, and the reaction is terminated at the corresponding time point using a termination solution containing an internal standard. The compounds were also incubated with microsomes for 60 minutes without a reducing coenzyme II regeneration system and served as a negative control.
(§5) 4) Each time point was a single point (n=1).
(§6) 5) The sample was determined by LC/MS/MS, and the compound concentration was shown as the ratio of the peak area of the compound to the peak area of the internal standard (non-standard).
(§7) 6) In the project report summary, the half-life and the clearance rate would be calculated.

[4] = In vivo pharmacodynamic study (2), NCI-H358 model, animal weight; set-up: species or system BALB/c nude mice; settings: 60 mg/kg orally daily
Experimental: (§8) The in vivo pharmacodynamic experiments were performed on the BALB/c nude mice implanted subcutaneously with the non-small cell lung cancer NCI-H358 model.
(§9) All of the cages, beddings and water were disinfected before use. All of the animals were permitted free access to a standard certified commercial laboratory diet. A total of 86 mice purchased from Vital River Laboratory Animal Co., LTD, Beijing were used for the study. The animal information of the experiments in Example 34 was as follows: BALB/c nude mice, female, 6-8 weeks, weighing approximately 16-18 g, were placed in a single ventilated cage (4 mice per cage) under a special pathogen free environment. All of the cages, beddings and water were disinfected before use. All of the animals were permitted free access to a standard certified commercial laboratory diet. A total of 56 mice purchased from Shanghai Lingchang Biotechnology Co., Ltd. were used for the study.
(§10) Each mouse was implanted subcutaneously with NCI-H358 tumor cells in the right back for tumor growth. The dosing initiated when the average tumor volume reached about 100-200 mm^3. […] The tumor volume was measured twice a week using a two-dimensional caliper, and the volume was measured in mm^3, calculated by the following the formula: V=0.5 a×b^2, wherein, a and b were the long and short diameters of the tumor, respectively. The antitumor efficacy was determined by dividing the average increase in the tumor volume of the animals treated with the compound by the average increase in the tumor volume of the untreated animals, and the safety of the compound was determined by the change in the body weight of the animal treated with the compound.

[5] = Metabolic stability in mouse liver microsomes; assay type: in vitro ADME; settings: 0.5 mg/mL protein, read-out: Mice T1/2
Experimental: as §1, §2, §3, §4, §5, §6, §7

[6] = Metabolic stability in rat liver microsomes; assay type: in vitro ADME; settings: 0.5 mg/mL protein, read-out: Rats T1/2
Experimental: as §1, §2, §3, §4, §5, §6, §7

[7] = system: non-small cell lung cancer NCI-H358 model; test: In vivo pharmacodynamic study (2), NCI-H358 model, tumor volume; set-up: species or system BALB/c nude mice; settings: 60 mg/kg orally daily, Table 6-1
Experimental: as §8, §9, §10
TGI: Tumor Growth Inhibition.

[8] = it has been reported; cited from earlier work

IC50 (NCI-H358 cells): 314 nM
solubility kinetic at 24 h (physchem): 103 µM (≈ 46.1 µg/mL)
solubility thermodynamic at 24 h [1]: 65.3 µM (≈ 29.2 µg/mL)
half-life at 1 μM [3]: 44.7 min
Category Efflux transporter substrate (Caco-2 cells): Highly
Category Permeability (Caco-2 cells): Low
Changes in animal weight, 0 days ([4]; 0 days): 0.0%
Changes in animal weight, 7 days ([4]; 7 days): 1.0%
Changes in animal weight, 14 days ([4]; 14 days): 0.9%
Changes in animal weight, 17 days ([4]; 17 days): 0.7%
half-life at 1 μM [5]: 53.3 min
half-life at 1 μM [6]: 47.8 min
SMILES: CC(=O)c1c(C)c2cnc(Nc3ccc(N4CCNCC4)cn3)nc2n(C2CCCC2)c1=O [Palbociclib]
Gross tumor volume Day 0 ([2]; Day 0): 145 mm^3
Gross tumor volume Day 7 ([2]; Day 7): 173 mm^3
Gross tumor volume Day 14 ([2]; Day 14): 179 mm^3
Gross tumor volume Day 20 ([2]; Day 20): 188 mm^3
Gross tumor volume, 0 day ([7]; 0 day): 152 mm^3
Gross tumor volume, 7 days ([7]; 7 days): 137 mm^3
Gross tumor volume, 14 days ([7]; 14 days): 107 mm^3
Gross tumor volume, 17 days ([7]; 17 days): 104 mm^3
brain permeability [8]: poor
